In US20260265238A1, “COMPOUNDS AND PHARMACEUTICAL COMPOSITIONS THAT DEGRADE SWI/SNF-RELATED MATRIX-ASSOCIATED ACTIN-DEPENDENT REGULATOR OF CHROMATIN SUBFAMILY A” (Plexium, Inc., priority 2023, published 2026):

Tests used:
[1] = target: T1, SMARCA4-HiBiT HeLa cells (protein which is expressed from the SMARCA4 gene) (Homo sapiens, UniProt P51532); assay: SMARCA4 degradation assay (HiBiT-fusion HeLa cell line, 24 h, luminescence); format: cell-based
T1 construct: protein which is expressed from the SMARCA2 and SMARCA4 genes; host or cells: HeLa (SMARCA4-HiBiT engineered line)
How it was run: (§1)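 HeLa cells carrying HiBiT-tagged SMARCA2 or SMARCA4 were seeded at 8,000 cells/well, allowed to attach overnight at 37° C., then given compounds in a 10-point dilution series (typically 10 μM to 300 pM) for 24 hours at 37° C. Remaining tagged protein was read by HiBiT lytic luminescence, and DC50s came from dose-response curves.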

[2] = target: T2, SMARCA2-HiBiT HeLa cells (protein which is expressed from the SMARCA2 gene) (Homo sapiens, UniProt P51531); assay: SMARCA2 degradation assay (HiBiT-fusion HeLa cell line, 24 h, luminescence); format: cell-based
T2 construct: protein which is expressed from the SMARCA2 and SMARCA4 genes; host or cells: HeLa (SMARCA2-HiBiT engineered line)
How it was run: as §1

T1 sequence (P51532 whole entry, the tested form may be a part): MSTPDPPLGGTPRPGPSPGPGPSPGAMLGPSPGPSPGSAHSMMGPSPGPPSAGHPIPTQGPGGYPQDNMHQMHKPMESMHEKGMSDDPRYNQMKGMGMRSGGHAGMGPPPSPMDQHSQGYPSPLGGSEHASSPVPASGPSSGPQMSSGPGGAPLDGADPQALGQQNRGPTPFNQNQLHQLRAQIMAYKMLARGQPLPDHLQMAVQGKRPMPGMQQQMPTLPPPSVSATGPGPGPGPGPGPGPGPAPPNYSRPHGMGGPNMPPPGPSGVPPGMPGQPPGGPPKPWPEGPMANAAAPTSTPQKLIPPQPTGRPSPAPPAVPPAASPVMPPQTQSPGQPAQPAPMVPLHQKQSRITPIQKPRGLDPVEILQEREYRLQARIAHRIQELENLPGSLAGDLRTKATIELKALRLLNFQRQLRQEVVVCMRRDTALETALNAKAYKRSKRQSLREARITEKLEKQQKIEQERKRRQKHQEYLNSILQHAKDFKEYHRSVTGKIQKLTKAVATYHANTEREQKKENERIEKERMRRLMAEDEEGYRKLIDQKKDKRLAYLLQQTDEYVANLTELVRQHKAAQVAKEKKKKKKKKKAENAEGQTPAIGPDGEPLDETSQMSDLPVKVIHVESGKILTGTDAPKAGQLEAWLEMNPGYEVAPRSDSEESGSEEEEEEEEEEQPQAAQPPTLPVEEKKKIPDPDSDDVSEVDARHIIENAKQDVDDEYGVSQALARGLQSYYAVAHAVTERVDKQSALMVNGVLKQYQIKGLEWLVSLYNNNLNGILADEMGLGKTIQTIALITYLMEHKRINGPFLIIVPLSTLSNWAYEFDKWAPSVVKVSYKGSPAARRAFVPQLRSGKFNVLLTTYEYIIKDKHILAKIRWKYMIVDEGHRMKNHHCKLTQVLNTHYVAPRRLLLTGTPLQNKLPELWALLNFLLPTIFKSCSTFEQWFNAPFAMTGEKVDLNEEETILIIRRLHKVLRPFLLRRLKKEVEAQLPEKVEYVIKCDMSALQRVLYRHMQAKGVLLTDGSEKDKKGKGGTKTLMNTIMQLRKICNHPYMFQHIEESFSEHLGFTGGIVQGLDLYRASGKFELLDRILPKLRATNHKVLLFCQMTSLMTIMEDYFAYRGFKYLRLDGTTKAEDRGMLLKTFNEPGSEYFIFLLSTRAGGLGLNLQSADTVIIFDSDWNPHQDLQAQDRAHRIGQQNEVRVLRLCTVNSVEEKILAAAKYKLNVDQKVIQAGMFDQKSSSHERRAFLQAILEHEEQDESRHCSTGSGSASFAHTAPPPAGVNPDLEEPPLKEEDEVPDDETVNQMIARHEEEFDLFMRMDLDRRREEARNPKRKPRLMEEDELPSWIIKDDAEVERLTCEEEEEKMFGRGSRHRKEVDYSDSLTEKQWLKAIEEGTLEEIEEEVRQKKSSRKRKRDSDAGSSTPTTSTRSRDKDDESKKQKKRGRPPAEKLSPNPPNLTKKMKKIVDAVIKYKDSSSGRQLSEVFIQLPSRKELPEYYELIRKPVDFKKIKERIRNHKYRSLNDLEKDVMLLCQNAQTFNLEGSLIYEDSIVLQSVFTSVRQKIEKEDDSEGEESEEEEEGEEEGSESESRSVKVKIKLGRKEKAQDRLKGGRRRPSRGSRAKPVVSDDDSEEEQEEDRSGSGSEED
T2 sequence (P51531 whole entry, the tested form may be a part): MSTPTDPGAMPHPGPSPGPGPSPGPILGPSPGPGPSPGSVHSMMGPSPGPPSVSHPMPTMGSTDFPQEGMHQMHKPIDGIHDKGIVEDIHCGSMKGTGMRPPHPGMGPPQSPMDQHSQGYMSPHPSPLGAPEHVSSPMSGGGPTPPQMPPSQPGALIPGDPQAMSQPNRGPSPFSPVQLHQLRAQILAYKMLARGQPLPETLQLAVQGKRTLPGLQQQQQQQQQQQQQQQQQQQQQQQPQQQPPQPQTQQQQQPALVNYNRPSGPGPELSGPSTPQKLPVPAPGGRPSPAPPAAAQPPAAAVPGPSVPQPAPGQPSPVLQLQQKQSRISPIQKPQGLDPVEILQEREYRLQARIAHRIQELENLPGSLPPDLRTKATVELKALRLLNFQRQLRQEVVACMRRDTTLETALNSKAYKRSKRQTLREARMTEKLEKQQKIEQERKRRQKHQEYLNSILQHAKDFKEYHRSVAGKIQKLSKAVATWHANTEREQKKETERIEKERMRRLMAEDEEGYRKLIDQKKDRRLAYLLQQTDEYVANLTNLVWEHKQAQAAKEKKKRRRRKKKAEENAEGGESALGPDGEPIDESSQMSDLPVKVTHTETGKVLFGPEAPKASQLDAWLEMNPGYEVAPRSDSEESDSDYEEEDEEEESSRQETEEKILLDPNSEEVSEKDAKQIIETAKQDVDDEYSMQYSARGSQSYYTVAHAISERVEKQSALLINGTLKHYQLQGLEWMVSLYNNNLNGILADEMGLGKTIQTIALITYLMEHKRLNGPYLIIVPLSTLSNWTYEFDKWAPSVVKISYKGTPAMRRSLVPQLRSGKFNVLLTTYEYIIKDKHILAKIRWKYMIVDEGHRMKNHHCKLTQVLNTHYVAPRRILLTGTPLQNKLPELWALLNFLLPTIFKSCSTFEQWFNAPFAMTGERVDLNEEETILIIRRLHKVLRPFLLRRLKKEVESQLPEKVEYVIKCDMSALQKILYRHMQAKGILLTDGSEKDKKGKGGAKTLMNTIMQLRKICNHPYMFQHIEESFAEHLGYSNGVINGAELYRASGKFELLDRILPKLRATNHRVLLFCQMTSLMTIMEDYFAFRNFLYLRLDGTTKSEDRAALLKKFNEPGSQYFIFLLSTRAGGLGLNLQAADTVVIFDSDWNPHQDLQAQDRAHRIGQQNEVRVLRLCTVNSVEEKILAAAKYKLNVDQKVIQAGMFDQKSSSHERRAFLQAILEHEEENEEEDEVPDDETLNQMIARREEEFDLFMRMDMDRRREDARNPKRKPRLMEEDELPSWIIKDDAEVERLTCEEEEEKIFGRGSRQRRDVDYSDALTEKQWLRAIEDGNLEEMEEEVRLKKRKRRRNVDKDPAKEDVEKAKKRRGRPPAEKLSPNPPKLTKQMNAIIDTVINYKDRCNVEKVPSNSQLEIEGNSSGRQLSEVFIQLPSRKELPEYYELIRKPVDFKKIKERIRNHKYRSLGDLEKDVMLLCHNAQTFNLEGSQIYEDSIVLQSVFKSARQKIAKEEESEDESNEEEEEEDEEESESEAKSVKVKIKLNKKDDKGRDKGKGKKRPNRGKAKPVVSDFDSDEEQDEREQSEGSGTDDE

Row | DC50 [1] [nM] | inhibition at 1 µM ([1]; @ 1 μM) [%] | DC50 [2] [nM] | SMARCA2 % Degradation @ 1 μM ([2]; @ 1 μM) | SMARCA4 % Degradation @ 1 μM ([1]; @ 1 μM) | SMARCA2 % Degradation @ 1 μM ([2]; 1 μM) | inhibition at 1 µM ([1]; 1 μM) [%] | Compound
1 | < 50 | 30 to 70 | < 50 | ++ (++=30-70%) |  |  |  | Nc1nnc(-c2ccccc2O)cc1N1CCN(c2ccnc(C#CCNC(=O)c3cnc4ccccc4n3)n2)CC1 [Compound P-72, N-(3-(4-(4-(3-amino-6-(2-hydroxyphenyl)pyridazin-4-yl)piperazin-1-yl)pyrimidin-2-yl)prop-2-yn-1-yl)quinoxaline-2-carboxamide]
2 | 500 to 5000 | < 30 | 50 to 500 | ++ (++=30-70%) |  |  |  | CN(C)CC#Cc1nccc(N2C[C@H]3CC[C@@H](C2)[C@H]3Oc2cc(-c3ccccc3O)nnc2N)n1 [Compound P-156, o-{5-[(1R,5S,8r)-3-{2-[3-(dimethylamino)-1-propynyl]-4-pyrimidinyl}-3-azabicyclo[3.2.1]oct-8-yloxy]-6-amino-3-pyridazinyl}phenol]
3 | 50 to 500 | 30 to 70 | 50 to 500 | +++ (+++=>70%) |  |  |  | C[C@@H]1CCN(c2cc(-c3ccccc3O)nnc2N)CCN1c1ccnc(C#CCN2CCC(C#N)C2)n1 (stereo partly drawn) [Compound P-245]
4 | 500 to 5000 | < 30 | 500 to 5000 | ++ (++=30-70%) |  |  |  | C[C@@H]1CN(CC#Cc2nccc(N3CCCN(c4cc(-c5ccccc5O)nnc4N)CC3)n2)C[C@@H](C)O1 [Compound P-356, 0-{5-[4-(2-{3-[(2R,6R)-2,6-dimethyl-4-morpholinyl]-1-propynyl}-4-pyrimidinyl)-1,4-diazepan-1-yl]-6-amino-3-pyridazinyl}phenol]
5 | 50 to 500 | 30 to 70 | 50 to 500 | ++ (++=30-70%) |  |  |  | Cc1nn2ccn(CC#Cc3nccc(N4C[C@H]5C[C@@H]4CN5c4cc(-c5ccccc5O)nnc4N)n3)c(=O)c2c1C [Compound P-286, 5-[3-(4-{(1R,4R)-5-[3-amino-6-(0-hydroxyphenyl)-4-pyridazinyl]-2,5-diazabicyclo[2.2.1]hept-2-y1}-2-pyrimidinyl)-2-propynyl]-2,3-dimethyl-1,5,7a-triaza-4(5H)-indenone]
6 | 50 to 500 | 30 to 70 | 50 to 500 | ++ (++=30-70%) |  |  |  | C[C@@H]1CCN(c2cc(-c3ccccc3O)nnc2N)CCN1c1ccnc(C#CCn2cccc2)n1 [Compound P-191, o-{5-[(R)-5-methyl-4-{2-[3-(1-pyrrolyl)-1-propynyl]-4-pyrimidinyl}-1,4-diazepan-1-yl]-6-amino-3-pyridaziny1}phenol]
7 | 500 to 5000 | 30 to 70 | 50 to 500 | ++ (++=30-70%) |  |  |  | Nc1nnc(-c2ccccc2O)cc1OC1CC2CN(c3ccnc(C#CCN4CCC4)n3)CC2C1 (stereo not drawn) [Compound P-197, o-[6-amino-5-(3-(2-[3-(1-azetidinyl)-1-propynyl]-4-pyrimidinyl}-3-azabicyclo[3.3.0]oct-7-yloxy)-3-pyridazinyl]phenol]
8 | < 50 | 30 to 70 | < 50 | ++ (++=30-70%) |  |  |  | Nc1nnc(-c2ccccc2O)cc1N1CCN(c2ccnc(C#CCNC(=O)c3ccn(C4CC4)n3)n2)CC1 [Compound P-11, N-[3-(4-{4-[3-amino-6-(2-hydroxyphenyl)pyridazin-4-yl]piperazin-1-yl}pyrimidin-2-yl)prop-2-yn-1-y1]-1-cyclopropyl-1H-pyrazole-3-carboxamide]
9 | 50 to 500 |  | 50 to 500 | +++ (+++=>70%) | ++ (++=30-70%) |  |  | Nc1nnc(-c2ccccc2O)cc1N1CCCN(c2ccnc(C#CCN3C(=O)c4ccccc4C3=O)n2)CC1 [Compound P-375, 2-[3-(4-{4-[3-amino-6-(o-hydroxyphenyl)-4-pyridaziny1]-1,4-diazepan-1-yl}-2-pyrimidinyl)-2-propynyl]-1,3-isoindolinedione]
10 | 50 to 500 | 30 to 70 | 50 to 500 | ++ (++=30-70%) |  |  |  | CC(C)(C)OC(=O)N1CCC(F)(C#Cc2nccc(N3CCCN(c4cc(-c5ccccc5O)nnc4N)CC3)n2)CC1 [Compound P-349]
11 | < 50 |  | < 50 |  |  | + (+=<30%) |  | CN(C)CC#Cc1cc(OC2CN(c3cc(-c4ccccc4O)nnc3N)C2)ccn1 [Compound P-386, 0-[6-amino-5-(3-{2-[3-(dimethylamino)-1-propynyl]-4-pyridyloxy}-1-azetidinyl)-3-pyridazinyl]phenol]
12 | 500 to 5000 | < 30 | 500 to 5000 | ?? |  |  |  | Nc1nnc(-c2ccccc2O)cc1N1CCCN(c2ccnc(C#Cc3cccc4nccn34)n2)CC1 [Compound P-306, 0-[5-(4-{2-[2-(1,3a-diaza-4-indenyl)ethynyl]-4-pyrimidinyl}-1,4-diazepan-1-yl)-6-amino-3-pyridazinyl]phenol]
13 | 50 to 500 | > 70 | 50 to 500 | +++ (+++=>70%) |  |  |  | C[C@@H]1CCN(c2cc(-c3ccccc3O)nnc2N)CCN1c1ccnc(C#C[C@@H](O)C2CC2)n1 [Compound P-265, o-{5-[(R)-4-{2-[(S)-3-cyclopropyl-3-hydroxy-1-propynyl]-4-pyrimidinyl}-5-methyl-1,4-diazepan-1-yl]-6-amino-3-pyridaziny1} phenol]
14 | 500 to 5000 |  | 50 to 500 |  |  | ++ (++=30-70%) | 30 to 70 | COCC#Cc1cc(N2CCN(c3cc(-c4ccccc4O)nnc3N)CC[C@H]2C)ccn1 [Compound P-398, 0-(5-{(R)-4-[2-(3-methoxy-1-propynyl)-4-pyridyl]-5-methyl-1,4-diazepan-1-yl}-6-amino-3-pyridazinyl)phenol]
15 | 50 to 500 | 30 to 70 | 50 to 500 | ++ (++=30-70%) |  |  |  | CNCC#Cc1nccc(N2CCCN(c3cc(-c4ccccc4O)nnc3N)CC2)n1 [Compound P-147, 2-(6-amino-5-(4-(2-(3-(methylamino)prop-1-yn-1-yl)pyrimidin-4-yl)-1,4-diazepan-1-yl)pyridazin-3-yl)phenol]
16 | < 50 | 30 to 70 | < 50 | ++ (++=30-70%) |  |  |  | CC(C#Cc1nccc(N2CCN(c3cc(-c4ccccc4O)nnc3N)CC[C@H]2C)n1)N(C)C (stereo partly drawn) [Compound P-254, o-{5-[(R)-4-{2-[3-(dimethylamino)-1-butynyl]-4-pyrimidinyl}-5-methyl-1,4-diazepan-1-yl]-6-amino-3-pyridazinyl}phenol]
17 | 50 to 500 | 30 to 70 | 50 to 500 | ++ (++=30-70%) |  |  |  | COCC1COCCN1CC#Cc1nccc(N2CCN(c3cc(-c4ccccc4O)nnc3N)CC[C@H]2C)n1 (stereo partly drawn) [Compound P-162, o-{5-[(R)-4-(2-{3-[3-(mcthoxymcthyl)-4-morpholinyl]-1-propynyl}-4-pyrimidinyl)-5-methyl-1,4-diazepan-1-yl]-6-amino-3-pyridazinyl}phenol]
18 | 50 to 500 | 30 to 70 | 50 to 500 | ++ (++=30-70%) |  |  |  | Nc1nnc(-c2ccccc2O)cc1N1CCN(c2ccnc(C#CCNC(=O)c3cnn4ccccc34)n2)CC1 [Compound P-65, N-(3-(4-(4-(3-amino-6-(2-hydroxyphenyl)pyridazin-4-yl)piperazin-1-yl)pyrimidin-2-yl)prop-2-yn-1-yl)pyrazolo[1,5-a]pyridine-3-carboxamide]
19 | 50 to 500 | 30 to 70 | 50 to 500 | ++ (++=30-70%) |  |  |  | Cc1ncsc1C(=O)NCC#Cc1nccc(N2CCN(c3cc(-c4ccccc4O)nnc3N)CC2)n1 [Compound P-62, N-(3-(4-(4-(3-amino-6-(2-hydroxyphenyl)pyridazin-4-yl)piperazin-1-yl)pyrimidin-2-yl)prop-2-yn-1-yl)-4-methylthiazole-5-carboxamide]
20 | 50 to 500 | 30 to 70 | 50 to 500 | ++ (++=30-70%) |  |  |  | Nc1nnc(-c2ccccc2O)cc1N1CCC2(CCN(c3ccnc(C#CCN4CC5CC4C5)n3)CC2)C1 [Compound P-187, o-{6-amino-5-[8-(2-{3-(2-azabicyclo[2.1.1]hex-2-yl)-1-propynyl}-4-pyrimidinyl)-2,8-diaza-2-spiro[4.5]decyl]-3-pyridazinyl}phenol]
21 | > 5000 |  | 500 to 5000 | + (+=<30%) |  |  |  | C[C@H]1CN(c2ccnc(C#CCN)n2)CCN1c1cc(-c2ccccc2O)nnc1N [Compound P-86, (S)-2-(6-amino-5-(4-(2-(3-aminoprop-1-yn-1-yl)pyrimidin-4-yl)-2-methylpiperazin-1-yl)pyridazin-3-yl)phenol]
22 | 50 to 500 |  | 50 to 500 |  |  | + (+=<30%) | 30 to 70 | C[C@@H]1CCN(c2cc(-c3ccccc3O)nnc2N)CCN1c1cc(C#CCN2CCCCC2)ncc1F [Compound P-414, 0-(5-{(R)-4-[5-fluoro-2-(3-piperidino-1-propynyl)-4-pyridyl]-5-methyl-1,4-diazepan-1-yl}-6-amino-3-pyridazinyl)phenol]

Row | Compound | DC50 [1] [nM] | inhibition at 1 µM ([1]; @ 1 μM) [%] | DC50 [2] [nM] | SMARCA2 % Degradation @ 1 μM ([2]; @ 1 μM) | SMARCA4 % Degradation @ 1 μM ([1]; @ 1 μM) | SMARCA2 % Degradation @ 1 μM ([2]; 1 μM) | inhibition at 1 µM ([1]; 1 μM) [%]
23 | Nc1nnc(-c2ccccc2O)cc1N1CC2CCC(C1)N2c1ccnc(C#CCNc2ncco2)n1 [Compound P-106, 2-(6-amino-5-(8-(2-(3-(oxazol-2-ylamino)prop-1-yn-1-yl)pyrimidin-4-yl)-3,8-diazabicyclo[3.2.1]octan-3-yl)pyridazin-3-yl)phenol] | 500 to 5000 | 30 to 70 | 500 to 5000 | ++ (++=30-70%) |  |  | 
